From patent US20100040667A1, “METHOD OF TREATING BONE CANCER” (ED. GEISTLICH SOEHNE AG FUER CHEMISCHE INDUSTRIE, priority 2006, published 2010)

How the values were obtained:
[1] = Solubility of taurolidine in water; assay type: physicochemical; conditions: room temperature
Excerpt: The preferred active substances are methylol transfer agents such as taurolidine, taurultam, mixtures thereof or equilibriums thereof. Where taurolidine and/or taurultam is used, its concentration in the aqueous solution absorbed in the gel is preferably 0.5% to 5% by weight, e.g. about 1 to 4%. Where the gel is in the form of a granulate, 2-4% by weight taurolidine and/or taurultam is preferred, more preferably, 4% taurolidine and/or taurultam by weight. Taurolidine is only about 2-3% soluble in water at room temperature, so that at higher concentrations, some material will be present as a suspension of, for example, fine taurolidine crystals.

[2] = tested on: osteosarcoma cell lines SAOS-2 (HTB-85), U2OS (HTB-96), HOS, 143B, LM5, Hu09 WT, Hu09H3, Hu09 L13, MG-63 and MG-63 M8; experiment: Taurolidine tested against 10 osteosarcoma cell lines; assay type: cell-based
Experimental: Taurolidine was tested against 10 oestosarcoma cell lines at concentrations of 50, 100 and 200 uM taurolidine. The cell lines were SAOS-2 (HTB-85), U2OS (HTB-96), HOS, 143B, LM5, Hu09 WT, Hu09H3, Hu09 L13, MG-63 and MG-63 M8.

Structure (SMILES): O=S1(=O)CCN(CN2CCS(=O)(=O)NC2)CN1 [Taurolidine, taurolidine]
- soluble in water [1]: 2-3%
- apoptotic cells ([2]; 50, 100 and 200 uM taurolidine): dose-dependent increase in apoptic cells
- inhibition of osteosarcoma cell lines ([2]; 50, 100 and 200 uM taurolidine, 10 cell lines): inhibited all osteosarcoma cell lines tested
- mechanism of apoptosis ([2]; osteosarcoma cell lines): caspase-dependent
